Reference: patent publication US11795169B2, “MAP4K4 inhibitors” (IMPERIAL COLLEGE INNOVATIONS LIMITED, priority 2017, dated 2023)
≈ marks a conversion by molar mass, not a printed value. Read-outs that look alike come from different tables or passages of the source.

What was measured:
[1] = target: human MAP4K4 kinase domain (Homo sapiens (Human), UniProt O95819); experiment: MAP4K4 kinase activity, CisBio HTRF Transcreener ADP assay; type: biochemical; settings: read-out: MAP4K4, IC50
In short: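 Kinase activity followed by HTRF Transcreener ADP detection: enzyme-generated ADP competes with d2-labelled ADP for Eu3+-cryptate anti-ADP antibody, read ratiometrically at 665/620 nm. IC50 values reported as categories.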

[2] = tested on: CorV.4U cardiomyocytes (hiPSC-CMs); experiment: Protection of CorV.4U cardiomyocytes from H2O2 or menadione (luminescent cell viability assay, human cardiac troponin assay); type: cell-based; settings: for EC50: Homo sapiens, Cardiomyocyte
Description: To substantiate the hypothesis that pharmacological inhibition of MAP4K4 would confer resistance to cell death in human cardiomyocytes, cytoprotection was next assessed using hiPSC-CMs.

[3] = tested on: H9c2 cardiomyocytes; experiment: Protection of H9c2 cardiomyocytes; type: cell-based
[4] = tested on: mice undergoing experimental myocardial infarction; experiment: Experimental myocardial infarction in mice (infarct size, TUNEL staining); type: in vivo
Experimental: To test if target validation and compound development in hiPSC-CMs might predict success in a whole-animal context, mice undergoing experimental myocardial infarction were treated with Ex-58 or the vehicle control (FIG. 9). […] Treatment was begun either 20 min prior to ischemia (FIG. 9D), or 1 h after reperfusion injury (FIG. 9E, F), the latter having greater relevance to potential clinical benefits.

[5] = Plasma protein binding (PPB); type: in vitro ADME; settings: for fraction unbound: plasma
[6] = Resistance to degradation in hepatocyte microsomes (Heps); type: in vitro ADME
[7] = Formulated solubility; type: physicochemical
[8] = tested on: Cyp; experiment: Cyp Inhibition; type: in vitro ADME
[9] = target: Cyp 2C9 (Homo sapiens (Human), UniProt P11712); experiment: Cyp Inhibition: 2C9; type: in vitro ADME
Sequence of Cyp 2C9 (P11712 whole entry): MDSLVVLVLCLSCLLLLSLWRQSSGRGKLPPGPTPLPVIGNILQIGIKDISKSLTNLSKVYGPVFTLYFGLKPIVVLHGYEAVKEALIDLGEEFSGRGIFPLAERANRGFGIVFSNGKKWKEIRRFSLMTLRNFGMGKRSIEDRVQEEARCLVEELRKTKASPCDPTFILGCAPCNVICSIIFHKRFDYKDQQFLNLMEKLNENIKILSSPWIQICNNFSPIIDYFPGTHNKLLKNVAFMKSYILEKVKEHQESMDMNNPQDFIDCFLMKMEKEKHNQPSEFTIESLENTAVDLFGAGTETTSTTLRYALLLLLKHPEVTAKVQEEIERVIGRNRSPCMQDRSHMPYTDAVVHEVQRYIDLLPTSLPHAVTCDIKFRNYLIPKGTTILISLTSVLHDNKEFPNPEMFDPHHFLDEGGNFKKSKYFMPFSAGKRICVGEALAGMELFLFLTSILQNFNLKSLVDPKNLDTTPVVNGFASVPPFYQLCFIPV

Sequence of human MAP4K4 kinase domain (O95819 25-289): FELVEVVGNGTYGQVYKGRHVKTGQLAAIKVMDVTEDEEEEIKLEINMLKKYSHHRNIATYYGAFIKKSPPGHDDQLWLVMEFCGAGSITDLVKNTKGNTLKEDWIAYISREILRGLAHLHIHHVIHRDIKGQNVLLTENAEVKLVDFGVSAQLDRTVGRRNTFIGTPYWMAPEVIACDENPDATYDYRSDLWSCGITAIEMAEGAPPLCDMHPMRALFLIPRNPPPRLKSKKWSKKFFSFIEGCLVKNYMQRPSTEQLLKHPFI

## O=c1[nH]cnc2c1c(-c1ccc(OCC3(CO)COC3)cc1)cn2-c1ccccc1 [Ex-54]
[1]
  IC50: 4 nM
[2]; H2O2 as death trigger, relative to Ex-58
  Protection in human iPSC-derived ventricular cardiomyocytes, H202, efficacy relative to Ex-58: (0.9)
[2]; H2O2 as death trigger, read-out: Protection in human iPSC-derived ventricular cardiomyocytes, EC50 H202
  EC50: 469 nM
[2]; read-out: EC50, protection of human cardiomyocytes
  EC50: < 1000 nM
[3]; H9c2 cardiomyocytes, relative to Ex-58
  Protection in H9c2 cardiomyocytes, efficacy relative to Ex-58: (0.3)
[3]; Rattus norvegicus, H9c2
  EC50: 199 nM
[4]; mice, experimental myocardial infarction
  In vivo efficacy (infarct size/area at risk), reduction: 53% reduction
[4]; mouse, in vivo
  infarct size in mice (in words): Reduction of infarct size
[5]
  plasma protein binding (PPB) relative to Ex-58: superior
[5]; human, read-out: Human PPB % (converted)
  fraction unbound: 0.03
[5]; mouse, read-out: Mouse PPB % (converted)
  fraction unbound: 0.03
[6]
  resistance to degradation in hepatocyte microsomes (Heps) relative to Ex-58: superior
[6]; human
  Human Heps: 5
[6]; mouse
  Mouse Heps: 25
[6]; pig
  Pig Heps: 6
[6]; rat
  Rat Heps: 3
[7]
  solubility: 300 µg/mL (≈ 744 µM)
[8]
  Cyp Inhibition: >10 µM
[9]
  Cyp Inhibition 2C9: (2C9 8 μM)
